This passage reports relative viability results from the supplement of paper PMC10307832.

Experiment in all cases: relative viability (nuclei count vs DMSO), 5 days (fraction); higher = more cells survive
Compound in assay [1]: CC1=CC(=NN1)NC2=CC(=NC(=N2)/C=C/C3=CC=CC=C3)N4CCN(CC4)C + CS(=O)(=O)CCNCc1ccc(-c2ccc3ncnc(Nc4ccc(OCc5cccc(F)c5)c(Cl)c4)c3c2)o1 [Lapatinib] (partner 2 µM)
In outline: (§1)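 Nuclei were stained with Hoechst during a one-step fixation (final 0.05% Triton X-100, 1% formaldehyde, 1 ug/ml Hoechst) carried out 5 days after dosing, then counted on 4× images. The cells, lung cancer lines in 1536-well plates, had been dosed by pin tool the day after seeding with one drug alone or a fixed anchor-drug dose plus five library-drug doses (not always all listed) in √10 steps. Relative viability is the nuclei count in treated wells divided by that in vehicle wells, and each value is the median of duplicate plates.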

Compound in the assay “Obatoclax + Olaparib”: COC1=CC(c2cc3ccccc3[nH]2)=N/C1=C\c1[nH]c(C)cc1C [Obatoclax] + O=C(c1cc(Cc2n[nH]c(=O)c3ccccc23)ccc1F)N1CCN(C(=O)C2CC2)CC1 [Olaparib] (partner 8 µM)
The procedure, abridged:
as §1

Compound in the assay “Obatoclax + Phenformin”: COC1=CC(c2cc3ccccc3[nH]2)=N/C1=C\c1[nH]c(C)cc1C [Obatoclax] + N=C(N)NC(=N)NCCc1ccccc1 [Phenformin] (partner 250 µM)
In outline:
as §1

Compound in assay [2]: CC1=CC(=NN1)NC2=CC(=NC(=N2)/C=C/C3=CC=CC=C3)N4CCN(CC4)C + CC(=O)c1c(C)c2cnc(Nc3ccc(N4CCNCC4)cn3)nc2n(C2CCCC2)c1=O [Palbociclib] (partner 0.5 µM)
In outline:
as §1

Turning to NCI-H2347, the relative viability in assay [1] (first compound 0.08 µM) stood at 0.908; in assay [1] (first compound 0.253 µM), 0.95; in assay [1] (first compound 0.8 µM) it was 1.04; in assay [1] (first compound 2.53 µM), 0.938; in assay [1] (first compound 8 µM), 0.99; with Obatoclax + Olaparib (first compound 0.01 µM) it was 0.56. Also, the relative viability with Obatoclax + Olaparib (first compound 0.03162 µM) is 0.572; with Obatoclax + Olaparib (first compound 0.1 µM) it was 0.528; with Obatoclax + Olaparib (first compound 0.3162 µM) it was 0.524; in the assay with Obatoclax + Olaparib (first compound 1 µM), 0.476; in the assay with Obatoclax + Phenformin (first compound 0.01 µM), 0.496; with Obatoclax + Phenformin (first compound 0.03162 µM) it was 0.366. The relative viability amounted to 0.506 with Obatoclax + Phenformin (first compound 0.3162 µM); 0.517 with Obatoclax + Phenformin (first compound 1 µM); 0.426 in assay [2] (first compound 0.08 µM); 0.412 in assay [2] (first compound 0.253 µM); 0.411 in assay [2] (first compound 0.8 µM); 0.435 in assay [2] (first compound 2.53 µM). In addition, the relative viability in assay [2] (first compound 8 µM) was 0.362.
NCI-H2405: the relative viability in assay [1] (first compound 0.08 µM) amounted to 1.09; in assay [1] (first compound 0.253 µM) it was 0.87; in assay [1] (first compound 0.8 µM) it was 1.22; in assay [1] (first compound 2.53 µM), 0.696; in assay [1] (first compound 8 µM) it was 0.133; with Obatoclax + Olaparib (first compound 0.01 µM), 0.911. Besides, the relative viability with Obatoclax + Olaparib (first compound 0.03162 µM) is 0.981; with Obatoclax + Olaparib (first compound 0.3162 µM), 0.935; with Obatoclax + Olaparib (first compound 1 µM), 0.734; in the assay with Obatoclax + Phenformin (first compound 0.01 µM) it was 0.411; with Obatoclax + Phenformin (first compound 0.03162 µM), 0.394; with Obatoclax + Phenformin (first compound 0.3162 µM) it was 0.402. Also, the relative viability in the assay with Obatoclax + Phenformin (first compound 1 µM) stood at 0.411; in assay [2] (first compound 0.08 µM), 0.553; in assay [2] (first compound 0.253 µM), 0.555; in assay [2] (first compound 0.8 µM), 0.521; in assay [2] (first compound 2.53 µM), 0.411; in assay [2] (first compound 8 µM) it was 0.174.
As for NCI-H3122, the relative viability in assay [1] (first compound 0.08 µM) is 0.971; in assay [1] (first compound 0.253 µM), 0.859; in assay [1] (first compound 0.8 µM), 1.03; in assay [1] (first compound 2.53 µM), 0.925; in assay [1] (first compound 8 µM), 0.897; in the assay with Obatoclax + Olaparib (first compound 0.01 µM) it was 0.655. In addition, the relative viability was 0.517 with Obatoclax + Olaparib (first compound 0.03162 µM); 0.642 with Obatoclax + Olaparib (first compound 0.1 µM); 0.613 with Obatoclax + Olaparib (first compound 0.3162 µM); 0.678 with Obatoclax + Olaparib (first compound 1 µM); 0.385 with Obatoclax + Phenformin (first compound 0.01 µM); 0.404 with Obatoclax + Phenformin (first compound 0.03162 µM). Moreover, the relative viability with Obatoclax + Phenformin (first compound 0.1 µM) is 0.317; in the assay with Obatoclax + Phenformin (first compound 0.3162 µM), 0.386; in the assay with Obatoclax + Phenformin (first compound 1 µM), 0.351; in assay [2] (first compound 0.08 µM), 0.207; in assay [2] (first compound 0.253 µM), 0.19; in assay [2] (first compound 0.8 µM) it was 0.224. Further, the values for the relative viability in assay [2] (first compound 2.53 µM) and in assay [2] (first compound 8 µM) were 0.174 and 0.165, respectively.
With PC-3 [JPC-3], the relative viability in assay [1] (first compound 0.08 µM) was 0.445; in assay [1] (first compound 0.253 µM), 0.46; in assay [1] (first compound 0.8 µM) it was 0.466; in assay [1] (first compound 2.53 µM), 0.408; in assay [1] (first compound 8 µM), 0.368; with Obatoclax + Olaparib (first compound 0.01 µM), 1.09. Moreover, the relative viability in the assay with Obatoclax + Olaparib (first compound 0.03162 µM) worked out at 1.25; in the assay with Obatoclax + Olaparib (first compound 0.1 µM), 1.02; in the assay with Obatoclax + Olaparib (first compound 0.3162 µM), 1; with Obatoclax + Olaparib (first compound 1 µM), 0.514; with Obatoclax + Phenformin (first compound 0.01 µM) it was 0.477; with Obatoclax + Phenformin (first compound 0.03162 µM), 0.486. Moreover, the relative viability came out at 0.511 in the assay with Obatoclax + Phenformin (first compound 0.1 µM); 0.473 with Obatoclax + Phenformin (first compound 0.3162 µM); 0.489 with Obatoclax + Phenformin (first compound 1 µM); 0.537 in assay [2] (first compound 0.08 µM); 0.587 in assay [2] (first compound 0.253 µM); 0.54 in assay [2] (first compound 0.8 µM). Besides, the values for the relative viability in assay [2] (first compound 2.53 µM) and in assay [2] (first compound 8 µM) were 0.529 and 0.491, respectively.
As to PC-14, the relative viability in assay [1] (first compound 0.08 µM) worked out at 0.334; in assay [1] (first compound 0.253 µM) it was 0.374; in assay [1] (first compound 0.8 µM), 0.278; in assay [1] (first compound 2.53 µM), 0.248; in assay [1] (first compound 8 µM) it was 0.0886; with Obatoclax + Olaparib (first compound 0.01 µM), 0.285. For the same cell line, the relative viability in the assay with Obatoclax + Olaparib (first compound 0.03162 µM) is 0.306; with Obatoclax + Olaparib (first compound 0.1 µM), 0.14; with Obatoclax + Olaparib (first compound 0.3162 µM), 0.0684; with Obatoclax + Olaparib (first compound 1 µM), 0.081; with Obatoclax + Phenformin (first compound 0.01 µM) it was 0.551; with Obatoclax + Phenformin (first compound 0.03162 µM) it was 0.612. The relative viability came to 0.308 with Obatoclax + Phenformin (first compound 0.1 µM); 0.425 in the assay with Obatoclax + Phenformin (first compound 0.3162 µM); 0.281 with Obatoclax + Phenformin (first compound 1 µM); 0.526 in assay [2] (first compound 0.08 µM); 0.497 in assay [2] (first compound 0.253 µM); 0.443 in assay [2] (first compound 0.8 µM). The relative viability in assay [2] (first compound 2.53 µM) stood at 0.22; in assay [2] (first compound 8 µM), 0.0464.
